Results reported in patent US7915292B2, “Antibacterial quinoline derivatives” (Janssen Pharmaceutica NV, priority 2005, dated 2011).
Converted amounts (≈) assume the structure as drawn.

Key:
ECO 25922 = experiment: Microtitre plate assay, IC90 determination, ECO 25922; format: cell-based, E. coli; conditions: 90% inhibitory concentration for bacterial growth, strain ECO 25922, 24 hours at 37° C.; for IC90: Escherichia coli, read-out: IC90 (μg/ml) ECO 25922
Method: (§1) Stocks (0.5 ml/tube) were stored at -70° C. until use. Bacteria titrations were performed in microtiter plates to detect the TCID50, in which the TCID50 represents the dilution that gives rise to bacterial growth in 50% of inoculated cultures. In general, an inoculum level of approximately 100 TCID50 was used for susceptibility testing. […] Serial five-fold dilutions (45 μl in 180 μl) were made directly in the microtiter plates from column 2 to reach column 11. Untreated control samples with (column 1) and without (column 12) inoculum were included in each microtiter plate. Depending on the bacteria type, approximately 10 to 60 CFU per well of bacteria inoculum (100 TCID50), in a volume of 100 μl in 2.8× Mueller-Hinton broth medium, was added to the rows […]. The same volume of broth medium without inoculum was added to column 12 in row A to H. The cultures were incubated at 37° C. for 24 hours under a normal atmosphere (incubator with open air valve and continuous ventilation). At the end of incubation, one day after inoculation, the bacterial growth was quantitated fluorometrically. Therefore resazurin (0.6 mg/ml) was added in a volume of 20 μl to all wells 3 hours after inoculation, and the plates were re-incubated overnight. A change in colour from blue to pink indicated the growth of bacteria. The fluorescence was read in a computer-controlled fluorometer (Cytofluor Biosearch) at an excitation wavelength of 530 nm and an emission wavelength of 590 nm. The % growth inhibition achieved by the compounds was calculated according to standard methods. The IC90 (expressed in μg/ml) was defined as the 90% inhibitory concentration for bacterial growth.

M. Smegmatis ATCC607 = experiment: In-vitro anti-bacterial activity against strain M. smegmatis ATCC607 (Alamar Blue growth inhibition); format: cell-based; conditions: 48 hours incubation; for IC50: Mycolicibacterium smegmatis, read-out: M. smegmatis pIC50 (converted)
Method: Serial five-fold dilutions (45 μl in 180 μl) were made directly in the microtiter plates from column 2 to 11 using a customised robot system (Zymark Corp., Hopkinton, Mass.). Pipette tips were changed after every 3 dilutions to minimize pipetting errors with high hydrophobic compounds. Untreated control samples with (column 1) and without (column 12) inoculum were included in each microtiter plate. Approximately 250 CFU per well of bacteria inoculum, in a volume of 100 μl in 2.8× Mueller-Hinton broth medium, was added to the rows […]. The same volume of broth medium without inoculum was added to column 12 in row A to H. The cultures were incubated at 37° C. for 48 hours in a humidified 5% CO2 atmosphere (incubator with open air valve and continuous ventilation). At the end of incubation, two days after inoculation, the bacterial growth was quantitated fluorometrically. Therefore Alamar Blue (10×) was added to all wells in a volume of 20 μl and plates were incubated for another 2 hours at […] The fluorescence was read in a computer-controlled fluorometer (Cytofluor, Biosearch) at an excitation wavelength of 530 nm and an emission wavelength of 590 nm (gain 30). The percentage growth inhibition achieved by the compounds was calculated according to standard methods and expressed as pIC50 values.

PAE 27853 = experiment: Microtitre plate assay, IC90 determination, PAE 27853; format: cell-based, Pseudomonas aeruginosa; conditions: Pseudomonas aeruginosa; 90% inhibitory concentration for bacterial growth; strain PAE 27853; 24 hours at 37° C.; read-out: IC90 (μg/ml) PAE 27853
Method: as §1

STA RMETH = experiment: Microtitre plate assay, IC90 determination, STA RMETH; format: cell-based, S. aureus; conditions: Staphylococcus aureus; 90% inhibitory concentration for bacterial growth; strain STA RMETH; 24 hours at 37° C.; read-out: IC90 (μg/ml) STA RMETH
Method: as §1

SMU 33402 = experiment: Microtitre plate assay, IC90 determination, SMU 33402; format: cell-based, S. mutans; conditions: Streptococcus mutans; 90% inhibitory concentration for bacterial growth; strain SMU 33402; 24 hours at 37° C.; read-out: IC90 (μg/ml) SMU 33402
Method: as §1

SPN 6305 = experiment: Microtitre plate assay, IC90 determination, SPN 6305; format: cell-based, S. pneumoniae; conditions: 90% inhibitory concentration for bacterial growth, strain SPN 6305, 24 hours at 37° C.; for IC90: Streptococcus pneumoniae, read-out: IC90 (μg/ml) SPN 6305
Method: as §1

SPY 8668 = experiment: Microtitre plate assay, IC90 determination, SPY 8668; format: cell-based, S. pyogens; conditions: 90% inhibitory concentration for bacterial growth; strain SPY 8668; 24 hours at 37° C.; read-out: IC90 (μg/ml) SPY 8668
Method: as §1

STA 29213 = experiment: Microtitre plate assay, IC90 determination, STA 29213; format: cell-based, S. aureus; conditions: 90% inhibitory concentration for bacterial growth, strain STA 29213, 24 hours at 37° C.; for IC90: Staphylococcus aureus, read-out: IC90 (μg/ml) STA 29213
Method: as §1

STA 25923 = experiment: Microtitre plate assay, IC90 determination, STA 25923; format: cell-based, S. aureus; conditions: Staphylococcus aureus; 90% inhibitory concentration for bacterial growth; strain STA 25923; 24 hours at 37° C.; read-out: IC90 (μg/ml) STA 25923
Method: as §1

BSU 43639 = experiment: Microtitre plate assay, IC90 determination, BSU 43639; format: cell-based, Bacillus subtilis; conditions: Bacillus subtilis; 90% inhibitory concentration for bacterial growth; strain BSU 43639; 24 hours at 37° C.; read-out: IC90 (μg/ml) BSU 43639
Method: as §1

LMO 49594 = experiment: Microtitre plate assay, IC90 determination, LMO 49594; format: cell-based, Listeria monocytogenes; conditions: Listeria monocytogenes; 90% inhibitory concentration for bacterial growth; strain LMO 49594; 24 hours at 37° C.; read-out: IC90 (μg/ml) LMO 49594
Method: as §1

EFA 29212 = experiment: Microtitre plate assay, IC90 determination, EFA 29212; format: cell-based, E. faecalis; conditions: Enterococcus faecalis; 90% inhibitory concentration for bacterial growth; strain EFA 29212; 24 hours at 37° C.; read-out: IC90 (μg/ml) EFA 29212
Method: as §1

[1] = system: Mycobacterium tuberculosis (strain H37RV); experiment: In-vitro method for testing compounds against M. tuberculosis (resazurin growth inhibition); format: cell-based; conditions: Mycobacterium tuberculosis, 168 h, 7 days incubation, read-out: M. tuberculosis pIC50 (converted)
EFA 14506 = experiment: Microtitre plate assay, IC90 determination, EFA 14506; format: cell-based, E. faecalis; conditions: Enterococcus faecalis; 90% inhibitory concentration for bacterial growth; strain EFA 14506; 24 hours at 37° C.; read-out: IC90 (μg/ml) EFA 14506
Method: as §1

Compound: COc1nc2ccc(C#N)cc2cc1C(c1ccccc1)N(CC(=O)N1CCCC1)Cc1ccccc1 (stereo not shown) [Compound 122]
- IC90 (ECO 25922): 12.3 µg/mL (≈ 25.1 µM)
- melting point: 161 °C
- IC50 (M. Smegmatis ATCC607): 63100 nM

Compound: COc1nc2ccc(Br)cc2cc1C(c1ccccc1)N(CC(=O)N1CCN(C)CC1)Cc1ccccc1 (stereo not shown) [Compound 104]
- IC90 (PAE 27853): 14.4 µg/mL (≈ 25.1 µM)
- IC90 (STA RMETH): 12.8 µg/mL (≈ 22.3 µM)
- IC90 (SMU 33402): 11.4 µg/mL (≈ 19.9 µM)
- IC90 (ECO 25922): 14.4 µg/mL (≈ 25.1 µM)
- melting point: 152 °C
- IC50 (M. Smegmatis ATCC607): 1580 nM
- IC90 (SPN 6305): 14.4 µg/mL (≈ 25.1 µM)
- IC90 (SPY 8668): 11.4 µg/mL (≈ 19.9 µM)
- IC90 (STA 29213): 11.4 µg/mL (≈ 19.9 µM)
- IC90 (STA 25923): 12.8 µg/mL (≈ 22.3 µM)
- IC90 (BSU 43639): 12.8 µg/mL (≈ 22.3 µM)

Compound: COc1nc2ccc(C#N)cc2cc1C(c1ccccc1)N(CC(=O)N1CCN(C)CC1)Cc1ccccc1 (stereo not shown) [Compound 123]
- IC90 (μg/ml) ECO 25922 (ECO 25922): 13.1 µg/mL (≈ 25.2 µM)
- M. smegmatis pIC50 (M. Smegmatis ATCC607): 5.2
- IC90 (μg/ml) SPN 6305 (SPN 6305): 13.1 µg/mL (≈ 25.2 µM)

Compound: COc1nc2ccc(Br)cc2cc1C(c1ccccc1)N(CC(=O)N1CCOCC1)Cc1ccccc1 (stereo not shown) [Compound 112]
- M. smegmatis pIC50 (M. Smegmatis ATCC607): 5.8
- IC90 (μg/ml) STA 29213 (STA 29213): 14.1 µg/mL (≈ 25.2 µM)

Compound: Cc1ccc2nc(-c3ccccc3)c(C(c3ccccc3)N(CC(=O)NN3CCN(C)CC3)Cc3ccccc3)cc2c1 (stereo not shown) [Compound 69]
- IC50 (M. Smegmatis ATCC607): 1580 nM
- IC90 (STA 29213): 9 µg/mL (≈ 15.8 µM)

Compound: COc1cccc(CN(CCN(C)C)C(c2ccccc2)c2cc3cc(Br)ccc3nc2OC)c1 (stereo not shown) [Compound 20]
- IC90 (LMO 49594): 15.7 µg/mL (≈ 29.4 µM)
- IC90 (STA RMETH): 14 µg/mL (≈ 26.2 µM)
- IC90 (SMU 33402): 12.5 µg/mL (≈ 23.4 µM)
- IC90 (ECO 25922): 15.7 µg/mL (≈ 29.4 µM)
- IC50 (M. Smegmatis ATCC607): 1260 nM
- IC90 (SPN 6305): 15.7 µg/mL (≈ 29.4 µM)
- IC90 (SPY 8668): 12.5 µg/mL (≈ 23.4 µM)
- IC90 (STA 29213): 14 µg/mL (≈ 26.2 µM)
- IC90 (EFA 29212): 15.7 µg/mL (≈ 29.4 µM)

Compound: CN(C)C(=O)CN(Cc1ccccc1)C(c1ccccc1)c1cc2cc(Br)ccc2nc1-c1ccccc1 (stereo not shown) [Compound 53]
- IC50 [1]: 20000 nM
- IC90 (ECO 25922): 14.2 µg/mL (≈ 25.2 µM)
- melting point: 110 °C
- IC50 (M. Smegmatis ATCC607): 316 nM

Compound: Cc1ccc2nc(-c3ccccc3)c(C(c3ccccc3)N(CC(=O)N3CCSCC3)Cc3ccccc3)cc2c1 (stereo not shown) [Compound 70]
- IC50 [1]: 3160 nM
- IC90 (LMO 49594): 14 µg/mL (≈ 25.1 µM)
- IC90 (ECO 25922): 14 µg/mL (≈ 25.1 µM)
- melting point: 144 °C
- IC50 (M. Smegmatis ATCC607): 251 nM
- IC90 (EFA 29212): 14 µg/mL (≈ 25.1 µM)

Compound: CCN(CC)C(=O)CN(C)C(c1ccccc1)c1cc2cc(Br)ccc2nc1OC (stereo not shown) [Compound 11]
- M. smegmatis pIC50 (M. Smegmatis ATCC607): 5.1
- IC90 (μg/ml) STA 29213 (STA 29213): 11.8 µg/mL (≈ 25.1 µM)

Compound: CNC(=O)CN(C)C(c1ccccc1)c1cc2cc(Br)ccc2nc1OC (stereo not shown) [Compound 3]
- IC50 [1]: > 100000 nM
- melting point: 190 °C
- IC50 (M. Smegmatis ATCC607): 89100 nM

Compound: CC(C)N(C)C(=O)CN(Cc1ccccc1)C(c1cccnc1)c1cc2ccccc2nc1-c1ccccc1 (stereo not shown) [Compound 34]
- M. smegmatis pIC50 (M. Smegmatis ATCC607): 5.8
- IC90 (μg/ml) STA 29213 (STA 29213): 51.5 µg/mL (≈ 100 µM)

Compound: COc1nc2ccc(C)cc2cc1C(c1ccccc1)N(CC(=O)N1CCOCC1)Cc1ccccc1 (stereo not shown) [Compound 59]
- IC90 (ECO 25922): 12.4 µg/mL (≈ 25 µM)
- melting point: 126 °C
- IC50 (M. Smegmatis ATCC607): 1580 nM

Compound: COc1nc2ccc(Br)cc2cc1C(c1ccccc1F)N(CCN(C)C)Cc1ccccc1 (stereo not shown) [Compound 22]
- IC90 (PAE 27853): 13.1 µg/mL (≈ 25.1 µM)
- IC90 (LMO 49594): 8.3 µg/mL (≈ 15.9 µM)
- IC90 (EFA 14506): 41.5 µg/mL (≈ 79.4 µM)
- IC90 (ECO 25922): 52.2 µg/mL (≈ 99.9 µM)
- IC50 (M. Smegmatis ATCC607): 1580 nM
- IC90 (STA 29213): 10.4 µg/mL (≈ 19.9 µM)
- IC90 (STA 25923): 8.3 µg/mL (≈ 15.9 µM)
- IC90 (EFA 29212): 10.4 µg/mL (≈ 19.9 µM)
- IC90 (BSU 43639): 41.5 µg/mL (≈ 79.4 µM)

Compound: CCOC(=O)CN(Cc1cccc2ncccc12)C(c1ccccc1)c1cc2cc(Br)ccc2nc1OC (stereo not shown) [Compound 145]
- melting point: 96 °C
- IC50 (M. Smegmatis ATCC607): 31600 nM

Compound: Cc1ccc2nc(-c3ccccc3)c(C(c3ccccc3)N(CC(=O)N(C)C(C)C)Cc3ccccc3)cc2c1 (stereo not shown) [Compound 41]
- IC50 [1]: 6310 nM
- IC90 (ECO 25922): 13.3 µg/mL (≈ 25.2 µM)
- melting point: 126 °C
- IC50 (M. Smegmatis ATCC607): 100 nM

Compound: Cc1ccc2nc(-c3ccccc3)c(C(c3ccccc3)N(CC(=O)N3CCCCC3)Cc3ccccc3)cc2c1 (stereo not shown) [Compound 66]
- IC50 [1]: 39800 nM
- IC90 (ECO 25922): 13.6 µg/mL (≈ 25.2 µM)
- melting point: 78 °C
- IC50 (M. Smegmatis ATCC607): 2510 nM

Compound: COc1nc2ccc(Br)cc2cc1C(c1ccccc1)N(CCN(C)C)c1ccccc1 (stereo not shown) [Compound 18]
- melting point: 120 °C
- IC50 (M. Smegmatis ATCC607): 2000 nM

Compound: CCOC(=O)CN(Cc1ccccc1)C(c1ccccc1)c1cc2cc(Br)ccc2nc1OC (stereo not shown) [Compound 137]
- IC90 (ECO 25922): 13 µg/mL (≈ 25 µM)
- IC90 (STA 25923): 11.6 µg/mL (≈ 22.3 µM)
